Laboratory results: patent US10160748B2 (AbbVie Inc., priority 2015, dated 2018)

These compounds were tested against TNFα trimer (Homo sapiens, UniProt P01375) (assay: TNFα FP Competitive Binding Assay). Details: FP binding assay; 20 nM TNFα trimer, 1 nM OregonGreen488 probe; read-out: TNF IC50.
In short: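 Compounds in 12-point 1:3 series, final top 100 μM (2.0% DMSO) or 338 μM (3.4% DMSO), displace 1 nM fluorescent probe from 20 nM TNFα trimer. After 18-24 h incubation plus 1 h rt equilibration, background-subtracted polarization measured and curves fitted with variable slope.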

TNFα trimer, sequence (P01375 77-233 limits assumed): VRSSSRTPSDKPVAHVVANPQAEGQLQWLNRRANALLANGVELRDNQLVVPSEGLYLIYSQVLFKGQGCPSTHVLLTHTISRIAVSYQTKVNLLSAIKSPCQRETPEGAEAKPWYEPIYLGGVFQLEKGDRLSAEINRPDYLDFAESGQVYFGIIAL

IC50	SMILES
< 1 µM	Cc1ccc(OC(F)F)c(Cn2c3cc(-c4cnc(C(C)(C)N)nc4)ccc3c(=O)n2C)c1 [Example 120, 6-(2-(2-Aminopropan-2-yl)pyrimidin-5-yl)-1-(2-(difluoromethoxy)-5-methylbenzyl)-2-methyl-1H-indazol-3(2H)-one]
> 10 µM	Cn1c(=O)c2ccc(-c3cnc(CN4CC(C(=O)O)C4)nc3)cc2n1Cc1ccccc1OC(F)F [Example 4, 1-((5-(1-(2-(Difluoromethoxy)benzyl)-2-methyl-3-oxo-2,3-dihydro-1H-indazol-6-yl)pyrimidin-2-yl)methyl)azetidine-3-carboxylic acid]
< 1 µM	C[C@@H]1CN(C(=O)CO)CCN1c1ncc(-c2ccc3c(=O)n(C)n(Cc4ccccc4OC(F)F)c3c2F)cn1 [Example 121, (R)-1-(2-(Difluoromethoxy)benzyl)-7-fluoro-6-(2-(4-(2-hydroxyacetyl)-2-methylpiperazin-1-yl)pyrimidin-5-yl)-2-methyl-1H-indazol-3(2H)-one]
1 to 10 µM	Cn1c(=O)c2cc(F)c(-c3cnc(C(C)(C)O)nc3)cc2n1Cc1cc(Cn2cnnc2)ccc1OC(F)F [Example 26.5]
< 1 µM	Cc1ccc(OC(F)F)c(Cn2c3cc(-c4cnc(N5CCN(C(=O)CN)[C@H](C)C5)nc4)ccc3c(=O)n2C)c1 [Example 14.10]
< 1 µM	C[C@@H]1CN(c2ccc(-c3cc4c(cc3F)c(=O)n(C)n4Cc3ccccc3OC(F)F)cn2)CCN1C(=O)CO [Example 60, (R)-1-(2-(Difluoromethoxy)benzyl)-5-fluoro-6-(6-(4-(2-hydroxyacetyl)-3-methylpiperazin-1-yl)pyridin-3-yl)-2-methyl-1H-indazol-3(2H)-one]
< 1 µM	Cc1ccc(OC(F)F)c(Cn2c3cc(-c4cnc(N5CCOCC5)nc4)ccc3c(=O)n2C)c1 [Example 1.18]
< 1 µM	CN(C)C(=O)OCc1ccc(OC(F)F)c(Cn2c3cc(-c4cnc(N5CCN6C(=O)NC[C@@H]6C5)nc4)ccc3c(=O)n2C)c1 [Example 67, (R)-4-(Difluoromethoxy)-3-((2-methyl-3-oxo-6-(2-(3-oxohexahydroimidazo[1,5-a]pyrazin-7(1H)-yl)pyrimidin-5-yl)-2,3-dihydro-1H-indazol-1-yl)methyl)benzyldimethylcarbamate]
< 1 µM	CC(c1cc(F)ccc1F)n1c2cc(-c3cnc(N4CCN(C(=O)CO)[C@H](C)C4)nc3)ccc2c(=O)n1C (some centres unmarked) [Example 24.7]
< 1 µM	Cn1c(=O)c2ccc(-c3cnc(N4CCOCC4)nc3)cc2n1Cc1cc(Cl)ccc1Cl [Example 7.1]
< 1 µM	Cc1ccc(OC(F)F)c(Cn2c3cc(-c4cnc(N5CCN(C(=O)CN)[C@@H](C)C5)nc4)ccc3c(=O)n2C)c1 [Example 14.7]
1 to 10 µM	Cc1ccnc(C(C)n2c3cc(-c4cnc(N5CCN(C(=O)CO)[C@H](C)C5)nc4)ccc3c(=O)n2C)c1 (some centres unmarked) [Example 24.10]
1 to 10 µM	Cc1ccc(OC(F)F)c(Cn2c3cc(-c4cnc(C(C)(C)O)nc4)ccc3c(=O)n2C(F)F)c1 [Example 26.2]
< 1 µM	Cn1c(=O)c2ccc(-c3cnc(C(C)(C)O)nc3)cc2n1Cc1cc(Cn2cncn2)ccc1OC(F)F [Example 104]
< 1 µM	Cn1c(=O)c2ccc(-c3cnc(N[C@H]4CCNC(=O)C4)nc3)cc2n1Cc1cc(CO)ccc1OC(F)F (single isomer, unassigned) [Example 25]
< 1 µM	C[C@@H]1CN(c2ncc(-c3ccc4c(=O)n(C(F)F)n(Cc5ccccc5OC(F)F)c4c3)cn2)CCN1C(=O)CO [Example 24.4]
1 to 10 µM	CC(=O)N1CCN(c2ncc(-c3ccc4c(=O)n(C)n(Cc5cc(CC(C)O)ccc5OC(F)F)c4c3)cn2)C[C@H]1C (stereo partly drawn) [Example 114, 6-(2-((R)-4-Acetyl-3-methylpiperazin-1-yl)pyrimidin-5-yl)-1-(2-(difluoromethoxy)-5-(2-hydroxypropyl)benzyl)-2-methyl-1H-indazol-3(2H)-one]
1 to 10 µM	Cn1c(=O)c2ccc(-c3cnc(NC4CCCCNC4=O)nc3)cc2n1Cc1ccccc1OC(F)F (centres unmarked) [Example 2.19]
1 to 10 µM	Cn1c(=O)c2ccc(-c3cnc(C(C)(C)O)nc3)cc2n1Cc1cc(CC#N)ccc1OC(F)F [Example 26.8]
< 1 µM	Cc1ccc(OC(F)F)c(Cn2c3cc(-c4cnn5c(C(C)(C)O)cnc5c4)ccc3c(=O)n2C)c1 [Example #135, 1-(2-(Difluoromethoxy)-5-methylbenzyl)-6-(3-(2-hydroxypropan-2-yl)imidazo[1,2-b]pyridazin-7-yl)-2-methyl-1H-indazol-3(2H)-one]
< 1 µM	Cn1c(=O)c2ccc(-c3cnc(N[C@@H]4CCNC(=O)C4)nc3)cc2n1Cc1cc(CO)ccc1OC(F)F (single isomer, unassigned) [Example 26]
1 to 10 µM	Cn1c(=O)c2ccc(-c3cnc(N4CCOCC4)cn3)cc2n1Cc1ccccc1OC(F)F [Example 10.2]
< 1 µM	CC(=O)N1CCN(c2ncc(-c3ccc4c(=O)n(C)n(Cc5c(CC#N)cccc5OC(F)F)c4c3)cn2)C[C@H]1C [Example 49, (R)-2-(2-((6-(2-(4-Acetyl-3-methylpiperazin-1-yl)pyrimidin-5-yl)-2-methyl-3-oxo-2,3-dihydro-1H-indazol-1-yl)methyl)-3-(difluoromethoxy)phenyl)acetonitrile]
< 1 µM	CC[C@@H]1CN(C(C)=O)CCN1c1ncc(-c2ccc3c(=O)n(C)n(Cc4cc(C)ccc4OC(F)F)c3c2)cn1 [Example 20.5]

IC50	SMILES
< 1 µM	Cn1c(=O)c2ccc(-c3cnc(N4CCN5C(=O)NC[C@@H]5C4)nc3)cc2n1Cc1cc(CC#N)ccc1OC(F)F [Example 68, (R)-2-(4-(Difluoromethoxy)-3-((2-methyl-3-oxo-6-(2-(3-oxohexahydromidazo[1,5-a]pyrazin-7(1H)-yl)pyrimidin-5-yl)-2,3-dihydro-1H-indazol-1-yl)methyl)phenyl)acetonitrile]
1 to 10 µM	C[C@@H]1CN(c2ncc(-c3ccc4c(=O)n(C)n([C@H](C)c5ccccc5F)c4c3)cn2)CCN1C(=O)CO (single isomer, unassigned) [Example 86]
< 1 µM	Cc1ccc(OC(F)F)c(Cn2c3cc(-c4cnc(N5CCN(C(=O)C6COC6)[C@H](C)C5)nc4)ccc3c(=O)n2C)c1 [Example 21.2]
< 1 µM	CC(=O)N1CCN(c2ncc(-c3ccc4c(=O)n(C)n(Cc5cc(C)ccc5OC(F)F)c4c3)cn2)CC1 [Example 22.6]
1 to 10 µM	Cn1c(=O)c2ccc(-c3cnc(NC4CCOC4)nc3)cc2n1Cc1ccccc1OC(F)F (centres unmarked) [Example 2.20]
< 1 µM	CC(=O)N1CCN(c2ncc(-c3ccc4c(=O)n(C)n(Cc5ccccc5OC(F)F)c4c3)cn2)CC1 [Example 2.3]
1 to 10 µM	Cn1c(=O)c2ccc(-c3cnc(N4CCC(c5nsc(=O)[nH]5)CC4)nc3)cc2n1Cc1ccccc1OC(F)F [Example 2.28]
< 1 µM	Cc1ccc(OC(F)F)c(Cn2c3cc(-c4cnc(N5CCN6C(=O)NCC6C5)nc4)ccc3c(=O)n2C)c1 (single isomer, unassigned) [Example 8]
< 1 µM	Cc1ccc(OC(F)F)c(Cn2c3cc(-c4ccnc(OC5CCOCC5)c4)ccc3c(=O)n2C)c1 [Example 22.13]
< 1 µM	Cc1ccc(OC(F)F)c(Cn2c3cc(-c4cnc(N5CCN(C(=O)[C@H](C)N)[C@@H](C)C5)nc4)ccc3c(=O)n2C)c1 [Example 14.6]
< 1 µM	Cn1c(=O)c2ccc(-c3cnc(N4CCN5C(=O)N(CCO)C[C@H]5C4)nc3)cc2n1Cc1ccccc1OC(F)F [Example 35, (R)-7-(5-(1-(2-(Difluoromethoxy)benzyl)-2-methyl-3-oxo-2,3-dihydro-1H-indazol-6-yl)pyrimidin-2-yl)-2-(2-hydroxyethyl)hexahydroimidazo[1,5-a]pyrazin-3(2H)-one]
< 1 µM	Cn1c(=O)c2cc(F)c(-c3cnc(C(C)(C)O)nc3)cc2n1Cc1cc(Cn2cncn2)ccc1OC(F)F [Example 26.4]
< 1 µM	C[C@@H]1CN(c2ncc(-c3cc4c(cc3F)c(=O)n(C)n4Cc3ccccc3OC(F)F)cn2)CCN1C(=O)CO [Example 59, (R)-1-(2-(Difluoromethoxy)benzyl)-5-fluoro-6-(2-(4-(2-hydroxyacetyl)-3-methylpiperazin-1-yl)pyrimidin-5-yl)-2-methyl-1H-indazol-3(2H)-one]
1 to 10 µM	Cn1c(=O)c2ccc(-c3cnc(C(C)(C)O)nc3)cc2n1Cc1cc([C@H]2CC[C@@H](C#N)C2)ccc1OC(F)F (racemic) [Example 96, rac-(R,3S)-3-(4-(Difluoromethoxy)-3-((6-(2-(2-hydroxypropan-2-yl)pyrimidin-5-yl)-2-methyl-3-oxo-2,3-dihydro-1H-indazol-1-yl)methyl)phenyl)cyclopentane-1-carbonitrile]
1 to 10 µM	Cn1c(=O)c2ccc(-c3cnc(N4CCOCC4)nc3)cc2n1Cc1ccccc1F [Example 1.15]
1 to 10 µM	Cn1c(=O)c2ccc(-c3cnc(N4CCOCC4)nc3)cc2n1Cc1ncccc1Cl [Example 1.14]
< 1 µM	CC(=O)N1CCN(c2ncc(-c3ccc4c(=O)n(C)n(Cc5cn(CCO)cc5C(F)(F)F)c4c3)cn2)C[C@H]1C [Example 64, (R)-6-(2-(4-Acetyl-3-methylpiperazin-1-yl)pyrimidin-5-yl)-1-((1-(2-hydroxyethyl)-4-(trifluoromethyl)-1H-pyrrol-3-yl)methyl)-2-methyl-1H-indazol-3(2H)-one]
1 to 10 µM	Cn1c(=O)c2ccc(-c3cnc(NC4CCNC4=O)nc3)cc2n1Cc1cc(CO)ccc1OC(F)F (centres unmarked) [Example 16.6]
1 to 10 µM	Cn1c(=O)c2ccc(-c3ccc(N4CCNC(=O)C4)nc3)cc2n1Cc1ccccc1OC(F)F [Example 5.3]
> 10 µM	Cn1c(=O)c2ccc(-c3cnc(N4CCOCC4)nc3)cc2n1C(=O)c1ccccc1 [Example 1.8]
1 to 10 µM	Cn1c(=O)c2ccc(-c3ccc(N4CCOCC4)nc3)cc2n1Cc1ccccc1OC(F)F [Example 5.2]
< 1 µM	Cc1ccc(C(F)(F)F)c(Cn2c3cc(-c4cnc(N5CCN6C(=O)NC[C@H]6C5)nc4)ccc3c(=O)n2C)c1 [Example 29.3]
< 1 µM	CC(=O)N1CCN(c2ncc(-c3ccc4c(=O)n(C)n(Cc5cc(C)ccc5Cl)c4n3)cn2)C[C@H]1C [Example 18.3]
